Target: T1, human PAD4 (Homo sapiens, UniProt Q9UM07)
T1 construct: human PAD4 (NM_012387), A2-P663, was PCR amplified; His-SUMO (N, cleaved yes); made in house; host or cells: E. coli BL21(DE3)
Experiment: In vitro PAD4 BAEE biochemical assay
Details: BAEE substrate 3 mM, 5 nM PAD4, 2 mM calcium chloride; geometric mean of multiple experiments
In short: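 Fluorescence read-out (ex 405/em 535 nm) of isoindole formed from ammonia, o-phthalaldehyde and DTT after EDTA stop. Reaction: 5 nM PAD4, 2 mM CaCl2, 3 mM BAEE, 2 h, 25 °C, after 30 min enzyme–compound preincubation. Normalised to BB-Cl-Amidine (50 µM) and DMSO controls.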

T1 sequence (Q9UM07 2-663): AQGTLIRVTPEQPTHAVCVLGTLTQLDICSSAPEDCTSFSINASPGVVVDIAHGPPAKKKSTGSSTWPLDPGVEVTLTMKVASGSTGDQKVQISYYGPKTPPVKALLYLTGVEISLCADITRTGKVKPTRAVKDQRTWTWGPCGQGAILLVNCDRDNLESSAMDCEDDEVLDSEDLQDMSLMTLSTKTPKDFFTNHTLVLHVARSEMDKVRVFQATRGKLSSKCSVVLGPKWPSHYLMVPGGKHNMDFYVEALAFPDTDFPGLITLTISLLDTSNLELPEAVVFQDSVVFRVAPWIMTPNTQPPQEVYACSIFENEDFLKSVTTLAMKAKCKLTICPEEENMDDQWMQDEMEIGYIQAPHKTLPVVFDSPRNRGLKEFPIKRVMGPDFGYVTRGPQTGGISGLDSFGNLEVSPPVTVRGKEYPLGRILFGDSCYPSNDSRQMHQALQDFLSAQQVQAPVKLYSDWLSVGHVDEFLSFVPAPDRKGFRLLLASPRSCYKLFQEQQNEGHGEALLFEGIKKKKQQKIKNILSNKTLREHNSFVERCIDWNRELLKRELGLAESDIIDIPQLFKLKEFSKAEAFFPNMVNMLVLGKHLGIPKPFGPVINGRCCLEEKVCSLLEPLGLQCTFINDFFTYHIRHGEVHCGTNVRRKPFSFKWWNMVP

| SMILES | IC50 |
| --- | --- |
| COc1cc(C(=O)N2C[C@H](N)C[C@@H](F)C2)cc2nc(-c3cc4ccc5nc4n3CC(F)(F)CCCC[C@@](C)(C(F)(F)F)C(=O)N[C@@H]5C)n(C)c12 [Example 728, (8~{R},11~{R})-17-[5-[(3~ {R},5~{R})-3-amino-5-fluoro-piperidine-1-carbonyl]-7-methoxy-1-methyl-benzimidazol-2-yl]-3,3-difluoro-8,11-dimethyl-8-(trifluoromethyl)-1,10,19-triazatricyclo[10.5.2.0^ {15,18}]nonadeca-12(19),13,15(18),16-tetraen-9-one] | 75 nM |
| CO[C@@H]1CCN(C(=O)c2cc3c4c(c2)nc(-c2cc5ccc6nc5n2CCCCC[C@@H]2C[C@H]2C(=O)N[C@@H]6C)n4CCO3)C[C@@H]1N [Example 729, (2~{R},5~{R},7~{R})-14-[6-[(3~{S},4~{R})-3-amino-4-methoxy-piperidine-1-carbonyl]-9-oxa-1,3-diazatricyclo [6.3.1.0^{4,12}]dodeca-2,4,6,8(12)-tetraen-2-yl]-2-methyl-3,13,19-triazatetracyclo[11.5.2.0^ {5,7}.0^{16,20}] icosa-1(19),14,16(20),17-tetraen-4-one] | 307 nM |
| COc1cc(C(=O)N2CC[C@@H](OC(F)F)[C@@H](N)C2)cc2nc(-c3cc4ccc5nc4n3CC(F)(F)CCCC[C@@](C)(C(F)(F)F)C(=O)N[C@@H]5C)n(C)c12 [Example 730, (8~{R},11~{R})-17-[5-[(3~ {S},4~{R})-3-amino-4-(difluoromethoxy)piperidine-1-carbonyl]-7-methoxy-1-methyl-benzimidazol-2-yl]-3,3-difluoro-8,11-dimethyl-8-(trifluoromethyl)-1,10,19-triazatricyclo [10.5.2.0^{15,18}]nonadeca-12(19),13,15(18),16-tetraen-9-one] | 270 nM |
| COc1cc(C(=O)N2CC[C@@H](OC)[C@@H](N)C2)cc2nc(-c3cc4ccc5nc4n3CCCCCc3cc4ccccc4nc3C(=O)N[C@@H]5C)n(C)c12 [Example 731, (2~{R})-21-[5-[(3~{S},4~{R})-3-amino-4-methoxy-piperidine-1-carbonyl]-7-methoxy-1-methyl-benzimidazol-2-yl]-2-methyl-3,6,20,26-tetrazapentacyclo[18.5.2.0^ {5,14}.0^{7,12}.0^{23,27}] heptacosa-1(26),5(14), 6,8,10,12,21,23(27),24-nonaen-4-one] | 140 nM |
| COc1cc(C(=O)N2CC[C@@H](OC(F)F)[C@@H](N)C2)cc2nc(-c3cc4ccc5nc4n3CCCCCc3cc4ccccc4nc3C(=O)N[C@@H]5C)n(C)c12 [Example 732, (2~{R})-21-[5-[(3~{S},4~{R})-3-amino-4-(difluoromethoxy)piperidine-1-carbonyl]-7-methoxy-1-methyl-benzimidazol-2-yl]-2-methyl-3,6,20,26-tetrazapentacyclo[18.5.2.0^ {5,14}.0^{7,12}.0^{23,27}] heptacosa-1(26),5(14),6,8,10, 12,21,23(27),24-nonaen-4-one] | 214 nM |
| COc1cc(C(=O)N2CC[C@@H](OC)[C@@H](N)C2)cc2nc(-c3cc4ccc5nc4n3CC(F)(F)CCCC[C@](C)(C(F)(F)F)C(=O)N[C@@H]5C)n(C)c12 [Example 733, (8~{S},11~{R})-17-[5-[(3~ {S},4~{R})-3-amino-4-methoxy-piperidine-1-carbonyl]-7-methoxy-1-methyl-benzimidazol-2-yl]-3,3-difluoro-8,11-dimethyl-8-(trifluoromethyl)-1,10,19-triazatricyclo[10.5.2.0^ {15,18}]nonadeca-12(19),13,15(18),16-tetraen-9-one] | 96 nM |
| C[C@H]1NC(=O)[C@@H]2C[C@H]2CCCCCn2c(-c3nc4cc(C(=O)N5CC[C@@H](OC(F)F)[C@@H](N)C5)cc5c4n3CCO5)cc3ccc1nc32 [Example 734, (2~{R},5~{R},7~{R})-14-[6-[(3~{S},4~{R})-3-amino-4-(difluoromethoxy)piperidine-1-carbonyl]-9-oxa-1,3-diazatricyclo[6.3.1.0^{4,12}]dodeca-2,4,6,8(12)-tetraen-2-yl]-2-methyl-3,13,19-triazatetracyclo[11.5.2.0^ {5,7}.0^{16,20}]icosa-1(19), 14,16(20),17-tetraen-4-one] | 185 nM |
| COc1cc(C(=O)N2CC[C@@H](OC)[C@@H](N)C2)cc2nc(-c3cc4ccc5nc4n3CCCCCc3cc4ccccc4nc3C(=O)N(C)[C@@H]5C)n(C)c12 [Example 735, (2~{R})-21-[5-[(3~{S},4~ {R})-3-amino-4-methoxy-piperidine-1-carbonyl]-7-methoxy-1-methyl-benzimidazol-2-yl]-2,3-dimethyl-3,6,20,26-tetrazapentacyclo[18.5.2.0^ {5,14).0^{7,12}.0^ {23,27}]heptacosa-1(26),5(14),6,8,10,12,21,23(27), 24-nonaen-4-one] | 143 nM |
| COc1cc(C(=O)N2CC[C@@H](OC(F)F)[C@@H](N)C2)cc2nc(-c3cc4ccc5nc4n3CCCCCc3cc4ccccc4nc3C(=O)N(C)[C@@H]5C)n(C)c12 [Example 736, (2~{R})-21-[5-[(3~{S},4~{R})-3-amino-4-(difluoromethoxy)piperidine-1-carbonyl]-7-methoxy-1-methyl-benzimidazol-2-yl]-2,3-dimethyl-3,6,20,26-tetrazapentacyclo[18.5.2.0^ {5,14}.0^{7,12}.0^{23,27}] heptacosa-1(26),5(14), 6,8,10,12,21,23(27),24-nonaen-4-one] | 304 nM |
| CO[C@@H]1CCN(C(=O)c2cc(F)c3c(c2)nc(-c2cc4ccc5nc4n2CC(F)(F)CCC[C@@H]2C[C@H]2C(=O)N[C@@H]5C)n3C)C[C@@H]1N [Example 738, (2~{R},5~{R},7~{R})-14-[5-[(3~{S},4~{R})-3-amino-4-methoxy-piperidine-1-carbonyl]-7-fluoro-1-methyl-benzimidazol-2-yl]-11,11-difluoro-2-methyl-3,13,19-triazatetracyclo[11.5.2.0^ {5,7}.0^{16,20}] icosa-1(19),14,16(20), 17-tetraen-4-one] | 48 nM |
| CO[C@@H]1CCN(C(=O)c2cc(F)c3c(c2)nc(-c2cc4ccc5nc4n2CC(F)(F)/C=C/C[C@@H]2C[C@H]2C(=O)N[C@@H]5C)n3C)C[C@@H]1N [Example 739] | 62 nM |
| CO[C@@H]1CCN(C(=O)c2cc(F)c3c(c2)nc(-c2cc4ccc5nc4n2CCCCCc2nc(Cl)ccc2C(=O)N[C@@H]5C)n3C)C[C@@H]1N [Example 740, (2~{R})-17-[5-[(3~{S},4~ {R})-3-amino-4-methoxy-piperidine-1-carbonyl]-7-fluoro-1-methyl-benzimidazol-2-yl]-8-chloro-2-methyl-3,9,16,22-tetrazatetracyclo [14.5.2.0^{5,10}.0^{19,23}] tricosa-1(22),5(10),6,8,17,19(23),20-heptaen-4-one] | 30 nM |
| C[C@@H]1[C@H](N)CCCN1C(=O)c1cc(F)c2c(c1)nc(-c1cc3ccc4nc3n1CCCCCc1nc(Cl)ccc1C(=O)N[C@@H]4C)n2C [Example 741, (2~{R})-17-[5-[(2~{R},3~{R})-3-amino-2-methyl-piperidine-1-carbonyl]-7-fluoro-1-methyl-benzimidazol-2-yl]-8-chloro-2-methyl-3,9,16,22-tetrazatetracyclo[14.5.2.0^ {5,10}.0^{19,23}]tricosa-1(22),5(10),6,8,17,19(23),20-heptaen-4-one] | 33 nM |
| CO[C@@H]1CCN(C(=O)c2cc(F)c3c(c2)nc(-c2cc4ccc5nc4n2CC(F)(F)/C=C/C[C@@H]2C[C@H]2C(=O)N[C@@H]5C)n3C2CC2)C[C@@H]1N [Example 742, (2~{R},5~{R},7~{R},9~{E})-14-[5-[(3~{S},4~{R})-3-amino-4-methoxy-piperidine-1-carbonyl]-1-cyclopropyl-7-fluoro-benzimidazol-2-yl]-11,11-difluoro-2-methyl-3,13,19-triazatetracyclo[11.5.2.0^ {5,7}.0^{16,20}]icosa-1(19), 9,14,16(20),17-pentaen-4-one] | 58 nM |
| CO[C@@H]1CCN(C(=O)c2cc(F)c3c(c2)nc(-c2cc4ccc5nc4n2CCCCCc2cc(Cl)ncc2C(=O)N[C@@H]5C)n3C)C[C@@H]1N [Example 744, (2~{R})-17-[5-[(3~{S},4~ {R})-3-amino-4-methoxy-piperidine-1-carbonyl]-7-fluoro-1-methyl-benzimidazol-2-yl]-8-chloro-2-methyl-3,7,16,22-tetrazatetracyclo [14.5.2.0^{5,10).0^{19,23}] tricosa-1(22),5(10),6,8,17,19(23), 20-heptaen-4-one] | 96 nM |
| CO[C@@H]1CCN(C(=O)c2cc(F)c3c(c2)nc(-c2cc4ccc5nc4n2CC(F)(F)CCC[C@@H]2C[C@H]2C(=O)N[C@@H]5C)n3C2C[C@H]2F)C[C@@H]1N (some centres unmarked) [Example 745, (2~{R},5~{R},7~{R})-14-[5-[(3~{S},4~{R})-3-amino-4-methoxy-piperidine-1-carbonyl]-7-fluoro-1-[(1~{S},2~{R})-2-fluorocyclopropyl]benzimidazol-2-yl]-11,11-difluoro-2-methyl-3,13,19-triazatetracyclo [11.5.2.0^{5,7}.0^{16,20}]icosa-1(19),14,16(20),17-tetraen-4-one] | 22 nM |
| CO[C@@H]1CCN(C(=O)c2cc(F)c3c(c2)nc(-c2cc4ccc5nc4n2CC(F)(F)CCC[C@@H]2C[C@H]2C(=O)N[C@@H]5C)n3[C@@H]2C[C@@H]2F)C[C@@H]1N [Example 746, (2~{R},5~{R},7~{R})-14-[5-[(3~{S),4~{R})-3-amino-4-methoxy-piperidine-1-carbonyl]-7-fluoro-1-[(1~{R},2~{S})-2-fluorocyclopropyl]benzimidazol-2-yl]-11,11-difluoro-2-methyl-3,13,19-triazatetracyclo [11.5.2.0^{5,7}.0^{16,20}] icosa-1(19),14,16(20), 17-tetraen-4-one] | 25 nM |

From patent US11976083B2, “Inhibitors of peptidylarginine deiminases” (Gilead Sciences, Inc., priority 2020, dated 2024)
